{
  "source": "patent US20230257480A1",
  "about": "“ENHANCING BLOOD-BRAIN BARRIER DRUG TRANSPORT BY TARGETING ENDOGENOUS REGULATORS” (THE BOARD OF TRUSTEES OF THE LELAND STANFORD JUNIOR …, priority 2019, published 2023)",
  "test_system": "aged brain endothelial cells",
  "test": "scRNA-seq of aged brain endothelial cells after pharmacologic ALPL inhibition",
  "type": "in vivo, mice",
  "source_text": "FIG. 21A includes an image and histogram showing holo-transferrin uptake in ALPL+/− cortical vasculature (n=6, paired two-sided t-test). FIG. 21B is an MA plot of differentially expressed genes (FDR<0.05) from aged mice after administration of ALPL inhibitor and vehicle (7,036 capillary cells, n=4 mice pooled per group, MAST with Bonferroni correction). FIG. 21C includes violin plots showing transferrin receptor (Tfrc) expression across vessel segments, following the paradigm in FIG. 21B (1,171 arterial, 7,036 capillary, and 430 venous cells, MAST with Bonferroni correction).\nCell lysis, first-strand synthesis and cDNA synthesis was performed using the Smart-seq-2 protocol as described previouslyl39-141 in 384-well format, with some modifications. Briefly, brain endothelial cells (CD31+/CD45−) were sorted using SH800S (Sony) sorters on the highest purity setting (‘Single cell’). Plasma-647 fluorescence was recorded for each cell and corresponding sorted well. cDNA synthesis was performed using the Smart-seq2 protocol140-142. After cDNA amplification (23 cycles), concentrations were determined via the PicoGreen quantitation assay. Cells passing quality control were selected through custom scripts and cDNA concentrations normalized to ˜0.2 ng/μL using the TPPLabtech Mosquito HTS and Mantis (Formulatrix) robotic platforms. Libraries were prepared and pooled using the Nextera XT kits (Illumina), following the manufacturer's instructions. Libraries were then sequenced on the Nextseq or Novaseq (Illumina) using 2×75 bp paired-end reads and 2×8 bp index reads with a 200-cycle kit (Illumina, 20012861). Samples were sequenced at an average of 1.5M reads per cell. Raw sequencing files were demultiplexed with bcl2fastq, reads were aligned using STAR, and gene counts made using HTSEQ version 0.6.1p1. Downstream analysis was performed as previously described58, and plasma fluorescence of each cell correlated (Spearman) with gene expression and zonation59.\nMice were treated with six doses of ALPL inhibitor (613810, Millipore Sigma; 2,5-Dimethoxy-N-(quinolin-3-yl)benzenesulfonamide, Tissue-Nonspecific Alkaline Phosphatase Inhibitor, MLS-0038949; C17H16N2O4S; CAS #496014-13-2) or ‘Vehicle’ control over three days, injected intraperitoneally twice per day (8.75 mg/kg). ‘Vehicle’ treatments consisted of phosphate-buffered saline (PBS) with a matching concentration of DMSO (less than 4% v/v). After the sixth treatment, mice were injected intravenously with 150 μL of Atto 647N-labeled plasma (as above), human holo-transferrin (T4132, Millipore Sigma, 40 mg/kg), transferrin receptor antibody (BE0175, BioXcell, 20 mg/kg), or 3-kDa dextran-FITC (10 mg/kg, Thermo Fisher). Plasma, human holo-transferrin, and transferrin receptor antibody were infused 20 h before sacrifice, while 3-kDa dextran-FITC was given 2 h before sacrifice, as previously described143. After extensive perfusion, CNS cells were isolated as described above. Cell pellets were additionally incubated in Red Blood Cell Lysis Buffer (Millipore Sigma, R7757) for 2 minutes to ensure high CNS cell purity. Brain endothelial cells were distinguished by CD3 I+/CD45− staining and parenchymal cells by CD31−/CD45− staining. […]",
  "data": [
    {"molecule": "COc1ccc(OC)c(S(=O)(=O)Nc2cnc3ccccc3c2)c1", "note": "[ALPL inhibitor, 2,5-Dimethoxy-N-(quinolin-3-yl)benzenesulfonamide]", "values": [
      {"measurement": "TFRC expression on the aged BBB", "setting": "aged BBB, upon ALPL inhibition", "value": "strongly upregulated"},
      {"measurement": "ferroportin expression on the aged BBB", "setting": "aged BBB, upon ALPL inhibition", "value": "strongly upregulated"},
      {"measurement": "transferrin receptor expression increase in capillaries", "setting": "aged mice, capillary cells, after ALPL inhibition", "value": "~70", "unit": "%"},
      {"measurement": "transferrin receptor expression increase in venous cells", "setting": "aged mice, venous cells, after ALPL inhibition", "value": "~89", "unit": "%"},
      {"measurement": "pct, ALPL inh., Fcgrt", "setting": "receptor gene Fcgrt, ALPL inhibitor-treated group", "value": 0.849},
      {"measurement": "% increase, Fcgrt", "setting": "receptor gene Fcgrt, aged BBB, ALPL inhibition vs control", "value": 24.2, "unit": "%"},
      {"measurement": "pct, ALPL inh., Lpar6", "setting": "receptor gene Lpar6, ALPL inhibitor-treated group", "value": 0.446},
      {"measurement": "% increase, Lpar6", "setting": "receptor gene Lpar6, aged BBB, ALPL inhibition vs control", "value": 37.0, "unit": "%"},
      {"measurement": "pct, ALPL inh., Scarb1", "setting": "receptor gene Scarb1, ALPL inhibitor-treated group", "value": 0.45},
      {"measurement": "% increase, Scarb1", "setting": "receptor gene Scarb1, aged BBB, ALPL inhibition vs control", "value": 11.1, "unit": "%"},
      {"measurement": "pct, ALPL inh., Tfrc", "setting": "receptor gene Tfrc, ALPL inhibitor-treated group", "value": 0.723},
      {"measurement": "% increase, Tfrc", "setting": "receptor gene Tfrc, aged BBB, ALPL inhibition vs control", "value": 70.1, "unit": "%"},
      {"measurement": "pct, ALPL inh., Slc6a6", "setting": "transporter gene Slc6a6, ALPL inhibitor-treated group", "value": 0.99},
      {"measurement": "% increase, Slc6a6", "setting": "transporter gene Slc6a6, aged BBB, ALPL inhibition vs control", "value": 24.9, "unit": "%"},
      {"measurement": "pct, ALPL inh., Slc7a1", "setting": "transporter gene Slc7a1, ALPL inhibitor-treated group", "value": 0.72},
      {"measurement": "% increase, Slc7a1", "setting": "transporter gene Slc7a1, aged BBB, ALPL inhibition vs control", "value": 12.2, "unit": "%"},
      {"measurement": "pct, ALPL inh., Slc16a2", "setting": "transporter gene Slc16a2, ALPL inhibitor-treated group", "value": 0.66},
      {"measurement": "% increase, Slc16a2", "setting": "transporter gene Slc16a2, aged BBB, ALPL inhibition vs control", "value": 16.5, "unit": "%"},
      {"measurement": "pct, ALPL inh., Slc16a4", "setting": "transporter gene Slc16a4, ALPL inhibitor-treated group", "value": 0.42},
      {"measurement": "% increase, Slc16a4", "setting": "transporter gene Slc16a4, aged BBB, ALPL inhibition vs control", "value": 18.8, "unit": "%"},
      {"measurement": "pct, ALPL inh., Slc22a8", "setting": "transporter gene Slc22a8, ALPL inhibitor-treated group", "value": 0.71},
      {"measurement": "% increase, Slc22a8", "setting": "transporter gene Slc22a8, aged BBB, ALPL inhibition vs control", "value": 11.0, "unit": "%"},
      {"measurement": "pct, ALPL inh., Slc25a1", "setting": "transporter gene Slc25a1, ALPL inhibitor-treated group", "value": 0.24},
      {"measurement": "% increase, Slc25a1", "setting": "transporter gene Slc25a1, aged BBB, ALPL inhibition vs control", "value": 10.7, "unit": "%"},
      {"measurement": "pct, ALPL inh., Slc26a10", "setting": "transporter gene Slc26a10, ALPL inhibitor-treated group", "value": 0.19},
      {"measurement": "% increase, Slc26a10", "setting": "transporter gene Slc26a10, aged BBB, ALPL inhibition vs control", "value": 17.8, "unit": "%"},
      {"measurement": "pct, ALPL inh., Slc39a8", "setting": "transporter gene Slc39a8, ALPL inhibitor-treated group", "value": 0.34},
      {"measurement": "% increase, Slc39a8", "setting": "transporter gene Slc39a8, aged BBB, ALPL inhibition vs control", "value": 10.9, "unit": "%"},
      {"measurement": "pct, ALPL inh., Slc39a10", "setting": "transporter gene Slc39a10, ALPL inhibitor-treated group", "value": 0.89},
      {"measurement": "% increase, Slc39a10", "setting": "transporter gene Slc39a10, aged BBB, ALPL inhibition vs control", "value": 12.1, "unit": "%"},
      {"measurement": "% increase, Slc40a1", "setting": "transporter gene Slc40a1 (ferroportin), aged BBB, ALPL inhibition vs control", "value": 35.0, "unit": "%"},
      {"measurement": "pct, ALPL inh., Slc40a1", "setting": "transporter gene Slc40a1, ALPL inhibitor-treated group", "value": 0.62},
      {"measurement": "pct, ALPL inh., Slco1c1", "setting": "transporter gene Slco1c1, ALPL inhibitor-treated group", "value": 0.97},
      {"measurement": "% increase, Slco1c1", "setting": "transporter gene Slco1c1, aged BBB, ALPL inhibition vs control", "value": 15.7, "unit": "%"}
    ]}
  ]
}
